Here are results for five molecules from patent publication US7785639B2, “Composition for treating cancer cells and preparation method for the same” (Kaohsiung Medical University, priority 2005, dated 2010).

≈ marks a conversion by molar mass, not a printed value.

One data set has as its system Hep 3B. The experiment in a line: MTT cytotoxic testing, Hep 3B. In kind it is cell-based. To be noted: human liver cancer cell line, average ± standard deviation (n = 2); for IC50: Hep3B. On the technique in general: Tetrazolium assays rely on reduction of a dye to a coloured formazan, in cell work by metabolically active cells.
Another data set relates to Hep G2. The data set is described as follows: MTT cytotoxic testing, Hep G2. In kind it is cell-based. To be noted: average ± standard deviation (n = 2); for IC50: HepG2, human liver cancer cell line; for IC50 Hep G2: human liver cancer cell line.
Data set [1] relates to five human cancer cell lines.
In a further data set the test system is MDA-MB-231. The data set is described as follows: MTT cytotoxic testing, MDA-MB-231. In kind it is cell-based. To be noted: average ± standard deviation (n = 2); for IC50: MDA-MB-231, human breast cancer cell line; for IC50 MDA-MB-231: human breast cancer cell line.
The subject of data set [2] is MCF-10A.
Data set [3] deals with MCF-10A. The experiment in a line: cells. The settings on record: Homo sapiens, read-out: IC50 MCF-10A.
In another data set the test system is A549. The experiment in a line: MTT cytotoxic testing, A549. To be noted: average ± standard deviation (n = 2); for IC50: A549, human lung cancer cell line; for IC50 A549: human lung cancer cell line. In kind it is cell-based.
The test system of the next data set is MCF-7. The experiment in a line: MTT cytotoxic testing, MCF-7. In kind it is cell-based. To be noted: average ± standard deviation (n = 2); for IC50: MCF7, human breast cancer cell line; for IC50 MCF-7: human breast cancer cell line.

As to `O=C1C=CC(O)(c2cc(=O)c3c(O)cc(O)cc3o2)C=C1` [Compound A, Protoapigenone], the IC50 (commonly the concentration that inhibits the measured activity by half) with Hep 3B stood at 0.23 ± 0.01 µg/mL (≈ 0.804 µM); with Hep G2 it was 1.6 ± 0.33 µg/mL (≈ 5.59 µM); in the data set with MDA-MB-231, 0.27 ± 0.02 µg/mL (≈ 0.943 µM); in the data set with MCF-10A [3], 7.9 ± 1.3 µg/mL (≈ 27.6 µM); in the data set with A549, 3.88 ± 0.02 µg/mL (≈ 13.6 µM); in the data set on MCF-7, 0.78 ± 0.02 µg/mL (≈ 2.72 µM). In addition, the “cytotoxic activities on cancer cells” value in data set [1] was “good cytotoxic activities”. Besides, in the data set on MCF-10A [2], the “cytotoxicity to normal human breast epidermal cells” value is “weak cytotoxicity”.

Regarding `COc1cccc2c1C(=O)c1c(O)c3c(c(O)c1C2=O)C[C@@](O)(C(=O)CO)C[C@@H]3O[C@H]1C[C@H](N)[C@H](O)[C@H](C)O1` [Compound E, Doxorubicin, reference compound], the IC50 in the data set on Hep 3B worked out at 0.26 ± 0.06 µg/mL (≈ 0.478 µM); in the data set with Hep G2, 0.15 µg/mL (≈ 0.276 µM); in the data set on MDA-MB-231 it was 0.31 ± 0.02 µg/mL (≈ 0.57 µM); with A549 it was 0.36 ± 0.04 µg/mL (≈ 0.662 µM); in the data set with MCF-7 it was 0.32 ± 0.08 µg/mL (≈ 0.589 µM).

For `O=c1cc(C2(O)C=CC(O)C=C2)oc2cc(O)cc(O)c12` (stereo not drawn) [Compound C, Protoapigenin], in the data set with Hep 3B, the “IC50 Hep 3B” value stood at 20.00 ± 0.58 µg/mL (≈ 69.4 µM). Besides, the “IC50 Hep G2” value in the data set with Hep G2 was found to be 1.60 ± 0.33 µg/mL (≈ 5.55 µM). Moreover, the “cytotoxic activities on cancer cells” value in data set [1] is “good cytotoxic activities”. Also, in the data set with MDA-MB-231, the “IC50 MDA-MB-231” value is listed as “— (Without the cytotoxical activity in the concentration of 20 μg/ml)”. Moreover, the “IC50 A549” value with A549 came out at 18.84 ± 0.60 µg/mL (≈ 65.4 µM). Also, the “IC50 MCF-7” value with MCF-7 was “— (Without the cytotoxical activity in the concentration of 20 μg/ml)”.

Regarding `COC1(OC)CCC(O)(c2cc(=O)c3c(O)cc(O)cc3o2)CC1` [Compound D, 5,7-dihydroxy-2-(1-hydroxy-4,4-dimethoxy-cyclohexyl)-chromen-4-one], the IC50 in the data set on Hep 3B, in the data set on Hep G2, with MDA-MB-231, in the data set on A549 and in the data set with MCF-7 was above 20 µg/mL each time.

`COC1CC(=O)C=CC1(O)c1cc(=O)c2c(O)cc(O)cc2o1` (stereo not drawn) [Compound B, 5′,6′-Dihydro-6′-methoxy-protoapigenone]: the “IC50 Hep 3B” value in the data set with Hep 3B turned out to be 1.74 ± 0.08 µg/mL (≈ 5.47 µM). Further, the “IC50 Hep G2” value in the data set with Hep G2 is 5.88 ± 0.47 µg/mL (≈ 18.5 µM). For the same molecule, the “cytotoxic activities on cancer cells” value in data set [1] was “good cytotoxic activities”. Also, in the data set with MDA-MB-231, the “IC50 MDA-MB-231” value amounted to 1.30 ± 0.10 µg/mL (≈ 4.08 µM). In addition, the “IC50 A549” value with A549 was found to be 13.30 ± 0.23 µg/mL (≈ 41.8 µM). Also, the “IC50 MCF-7” value in the data set with MCF-7 was determined as 5.92 ± 0.29 µg/mL (≈ 18.6 µM).
